What was measured:
EL-4 T lymphoma cells = experiment: Trypan blue exclusion assay, cell viability; assay type: cell-based, mouse; conditions: for Cell viability (%): EL-4 cells
Description: (§1) First, in an incubator containing 5 vol % of CO2 at 37° C., EL-4 mouse T lymphoma cells (commercially available from ATCC, Manassas, Va., America) were cultured in the DMEM culture medium (containing 10 wt % of thermally deactivated FBS), and were sub-cultured at a ratio of 1:3.
Then, at a density of 5×10^5 counts/ml, the T lymphoma cells were bred in a six-well culture dish, and at the 0th minute, brazilin of different concentrations (0.3, 1, 3, 10, or 30 micromole (μM)) was added into the cell culture solution at an amount of 1 μl/ml-cell culture solution. Then, the cells were put into the incubator to be cultured therein. […] During the process of cell culture, the trypan blue exclusion assay was employed to observe effect of the brazilin on the cell viability, results of which are shown in Table 1 and FIG. 1.

IL-4 = experiment: ELISA of IL-4 in supernatant of EL-4 T lymphoma cells; assay type: cell-based, mouse; conditions: EL-4 cells
Description: as §1
Then, at a density of 5×10^5 counts/ml, the T lymphoma cells were bred in a six-well culture dish, and at the 0th minute, brazilin of different concentrations (0.3, 1, 3, 10, or 30 micromole (μM)) was added into the cell culture solution at an amount of 1 μl/ml-cell culture solution. Then, the cells were put into the incubator to be cultured therein. 30 minutes later, at an amount of 1 μl/ml-cell culture solution, 5 μg/ml PMA and cAMP at a 250 mmol concentration were added to the cell culture solution to stimulate the expression of IL-4 and IL-5 of the T lymphoma cells. During the process of cell culture, the trypan blue exclusion assay was employed to observe effect of the brazilin on the cell viability, results of which are shown in Table 1 and FIG. 1.
At 4° C., the T lymphoma cells obtained from Experiment A were centrifugally rotated at a rotational speed of 1000 rpm and at 4° C. for 5 minutes, and the supernatant was collected and analyzed for cytokines.
An enzyme-linked immunosorbent assay (ELISA) kit (commercially available from R&D Systems, Inc., America) was used to analyze the expression of IFN-γ, IL-4, IL-5, and eotaxin cytokines in the aforesaid supernatant, results of which are shown in Table 2, Table 3, FIG. 2, and FIG. 3.
In Experiment B and the following Experiment C, all experimental data are presented in form of “mean±standard deviation”, and statistical discrepancy was analyzed by means of the One-way ANOVA and Newman-keuls post-hoc tests, in which it is considered that there is statistical discrepancy if p<0.05.

[1] = tested on: invasion of inflammatory cells into the lungs; experiment: Histopathological examination of H&E stained lung tissue slices, mice with asthma (OVA); assay type: in vivo; conditions: OVA-sensitized BALB/c mice, result in words
Description: (§2) In Example 2, mice with asthma were used to conduct in vivo experiments, and ovalbumin (OVA) was used as an allergen.
The mice were sensitized (or challenged) according to the steps shown in FIG. 9 (see Lee et al., Lentiviral-mediated GATA-3 RNAi decreases allergic airway inflammation and hyperresponsiveness. Molecular Therapy, 2008; 16:60-65, which is incorporated herein in its entirety by reference). First, 50 μg OVA (using 2 mg alumina (Alum, Alumlmuject, Pierce Chemical, Rockford, Ill., USA) as an adjuvant) was injected into six to eight-week-old BALB/c female mice (from National Laboratory Animal Center, Taiwan) by intraperitoneal injection (i.p.). At 0th, 14th, and 28th day, the mice were injected with OVA at the same dosage. Before the administration of OVA at the forty-first and the forty-second days, different dosages of brazilin (high dose: 430 μg/mice; low dose: 43 μg/mice) were administrated to the mice by intraperitoneal injection (i.p.) or intratracheal instillation (i.t.). During the fortieth to the forty-second days, 100 μg OVA was dissolved in 40 μl PBS, and was administrated to the mice by intranasal instillation (i.n.) (once everyday, for three days). At the forty-third day, airway hyperresponsiveness of the mice was observed. […]

[2] = tested on: macrophages, lymphocytes, eosinophils, and neutrophils in bronochial alveolar lavage fluid; experiment: Immunocyte counts in bronochial alveolar lavage fluid, mice with asthma (OVA); assay type: in vivo; conditions: OVA-sensitized BALB/c mice; for Number of eosinophils (×10^4) / Number of lymphocytes (×10^4) / Number of macrophages (×10^4) / Number of neutrophils (×10^4): i.p. or i.t., bronochial alveolar lavage fluid
Description: as §2
The mice were sensitized (or challenged) according to the steps shown in FIG. 9 (see Lee et al., Lentiviral-mediated GATA-3 RNAi decreases allergic airway inflammation and hyperresponsiveness. Molecular Therapy, 2008; 16:60-65, which is incorporated herein in its entirety by reference). First, 50 μg OVA (using 2 mg alumina (Alum, Alumlmuject, Pierce Chemical, Rockford, Ill., USA) as an adjuvant) was injected into six to eight-week-old BALB/c female mice (from National Laboratory Animal Center, Taiwan) by intraperitoneal injection (i.p.). At 0th, 14th, and 28th day, the mice were injected with OVA at the same dosage. Before the administration of OVA at the forty-first and the forty-second days, different dosages of brazilin (high dose: 430 μg/mice; low dose: 43 μg/mice) were administrated to the mice by intraperitoneal injection (i.p.) or intratracheal instillation (i.t.). During the fortieth to the forty-second days, 100 μg OVA was dissolved in 40 μl PBS, and was administrated to the mice by intranasal instillation (i.n.) (once everyday, for three days). At the forty-third day, airway hyperresponsiveness of the mice was observed. At the forty-sixth day, the mice were sacrificed and used to conduct the following Experiments E to G During the above procedure, it was observed if any toxicity response arises after the administration of brazilin to the mice. In this experiment, the mice administrated with OVA were used as a positive control, and the mice not administrated with OVA were used as a negative control.
In Experiment D, after 24 hours from the last administration of OVA into the noses of the mice, the mice were sacrificed, and the blood was collected from the orbital cavities of the mice. Then, a cannula was immediately inserted into the bronchi of the mice, and the lungs of the mice were washed with a 1 ml HBSS buffer solution containing no calcium and magnesium ions three times, and a bronochial alveolar lavage fluid is collected. The fluid was centrifuged at 4° C. and with a revolution speed of 400 g for 10 minutes. Cells obtained after the centrifugation were re-suspended in a 1 ml HBSS buffer solution, and the total cell number was counted with a hemocytometer.
Then, the cells were fixed on a glass sheet in a way of cytocentrifuged preparations, and the Liu's stain (see Lee et al., Lentiviral-mediated GATA-3 RNAi decreases allergic airway inflammation and hyperresponsiveness. Molecular Therapy. 2008; 16:60-65, which is incorporated herein in its entirety by reference) was carried out to calculate the number of various kinds of cells. The cell number was calculated by counting the number of macrophages, lymphocytes, eosinophils, and neutrophils in 300 cells respectively. The cells were categorized according to their standard morphology, and the invasion of inflammatory cells into the lungs was observed.

## Oc1ccc2c(c1)OC[C@]1(O)Cc3cc(O)c(O)cc3[C@H]21 [brazilin]
EL-4 T lymphoma cells; 0.3-30 μM, result in words
  effect on the growth of EL-4 T lymphoma cells: no effect
EL-4 T lymphoma cells; EL-4 T lymphoma cells, 0.3-30 μM, result in words
  cytotoxicity: no cytotoxicity
EL-4 T lymphoma cells; brazilin 0.3 μM, no PMA + cAMP
  Cell viability (%): 102.8 ± 6.895%
EL-4 T lymphoma cells; brazilin 0.3 μM, with PMA + cAMP
  Cell viability (%): 115.9 ± 6.968%
EL-4 T lymphoma cells; brazilin 1 μM, no PMA + cAMP
  Cell viability (%): 106.5 ± 1.190%
EL-4 T lymphoma cells; brazilin 1 μM, with PMA + cAMP
  Cell viability (%): 107.4 ± 3.829%
EL-4 T lymphoma cells; brazilin 3 μM, no PMA + cAMP
  Cell viability (%): 101.5 ± 4.226%
EL-4 T lymphoma cells; brazilin 3 μM, with PMA + cAMP
  Cell viability (%): 109.0 ± 3.764%
EL-4 T lymphoma cells; brazilin 10 μM, no PMA + cAMP
  Cell viability (%): 111.5 ± 5.126%
EL-4 T lymphoma cells; brazilin 10 μM, with PMA + cAMP
  Cell viability (%): 100.8 ± 3.257%
EL-4 T lymphoma cells; brazilin 30 μM, no PMA + cAMP
  Cell viability (%): 98.17 ± 8.439%
EL-4 T lymphoma cells; brazilin 30 μM, with PMA + cAMP
  Cell viability (%): 104.7 ± 2.495%
IL-4; result in words
  expression of protein of IL-4 cytokine: inhibited
IL-4; brazilin 0.3 μM + PMA + cAMP
  Concentration of IL-4 (pico-gram/ml): 23.93 ± 2.214 pico-gram/ml
IL-4; brazilin 1 μM + PMA + cAMP
  Concentration of IL-4 (pico-gram/ml): 22.49 ± 1.969 pico-gram/ml
IL-4; brazilin 3 μM + PMA + cAMP
  Concentration of IL-4 (pico-gram/ml): 23.45 ± 2.693 pico-gram/ml
IL-4; brazilin 10 μM + PMA + cAMP
  Concentration of IL-4 (pico-gram/ml): 23.13 ± 2.297 pico-gram/ml
IL-4; brazilin 30 μM + PMA + cAMP
  Concentration of IL-4 (pico-gram/ml): 18.71 ± 1.206 pico-gram/ml
[1]
  invasion of inflammatory cells (H&E lung slices, FIG. 11): reduced
[2]; High dose (430 μg/mice)
  Number of eosinophils (×10^4): 10.52 ± 4.543 ×10^4
  Number of lymphocytes (×10^4): 0.8106 ± 0.3015 ×10^4
  Number of macrophages (×10^4): 34.25 ± 4.970 ×10^4
  Number of neutrophils (×10^4): 0.2178 ± 0.1799 ×10^4
[2]; Low dose (43 μg/mice)
  Number of eosinophils (×10^4): 21.39 ± 1.491 ×10^4
  Number of lymphocytes (×10^4): 0.7421 ± 0.2902 ×10^4
  Number of macrophages (×10^4): 41.67 ± 6.885 ×10^4
  Number of neutrophils (×10^4): 0.6476 ± 0.2759 ×10^4
[2]; result in words
  number of eosinophils in the lungs of the mice: decreased

From patent US8796327B2, “Method for inhibiting production of cytokines of T helper cell type II and/or inhibiting production of chemokines using brazilin” (China Medical University, priority 2010, dated 2014)
